Type: physicochemical
Procedure: In another variation of the manufacturing process involving hot-melt extrusion, a mixed/combined composition of the polymer material (often in the form of a powder) and the anti-inflammatory agent is raised to a temperature above the glass transition temperature of the polymer material. The combined composition is then subjected to hot-melt extrusion to form the suture. The temperature during the hot-melt extrusion process preferably remains at or below 140° C. We discovered that tacrolimus begins to degrade at temperatures above this limit. By carrying out the hot-melt extrusion at temperatures at or below 140° C., the process allows for the formation of the suture without causing degradation of the tacrolimus or the polymer material.

C=CC[C@@H]1/C=C(\C)C[C@H](C)C[C@H](OC)[C@H]2O[C@@](O)(C(=O)C(=O)N3CCCC[C@H]3C(=O)O[C@H](/C(C)=C/[C@@H]3CC[C@@H](O)[C@H](OC)C3)[C@H](C)[C@@H](O)CC1=O)[C@H](C)C[C@@H]2OC [tacrolimus]
temperature above which tacrolimus begins to degrade: > 140 °C

— US20240181123A1, “DRUG-ELUTING SUTURE FOR ATTENUATING INFLAMMATION IN WOUNDS” (University of Utah Research Foundation, priority 2022, published 2024)
